Test results from ChEMBL document CHEMBL1201862, “PubChem BioAssay data set” (2004).
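Results reflect a 48-hour exposure of cells in 96-well plates to compound at five concentrations. At the GI50, growth is halved.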 Activity calls are given as the source filed them. Cut-off read from the data, not from the text of the source: active = GI50 up to about 1.1 µM and inactive = higher.

Key:
Experiment in all cases: growth of human tumour cells (NCI), 48 h
[1] = test system: SF-539
[2] = test system: MOLT-4
[3] = test system: HOP-92
[4] = test system: SNB-78
[5] = test system: HOP-18
[6] = test system: SK-MEL-28
[7] = test system: A549
[8] = test system: SF-268
[9] = test system: DMS-273
[10] = test system: DMS-114
[11] = test system: LXFL 529
[12] = test system: HCC 2998
[13] = test system: K562
[14] = test system: CAKI-1
[15] = test system: OVCAR-3
[16] = test system: HOP-62
[17] = test system: M14
[18] = test system: M19-MEL
[19] = test system: COLO 205
[20] = test system: 786-0
[21] = test system: SN12C
[22] = test system: RXF 631
[23] = test system: SNB-75
[24] = test system: U-251
[25] = test system: OVCAR-8
[26] = test system: OVCAR-5
[27] = test system: SW-620
[28] = test system: OVCAR-4
[29] = test system: RXF 393
[30] = test system: XF498
[31] = test system: TK-10
[32] = test system: CCRF-CEM
[33] = test system: NCI-H460
[34] = test system: UACC-62
[35] = test system: HT-29
[36] = test system: IGROV-1
[37] = test system: SK-MEL-5
[38] = test system: LOX IMVI
[39] = test system: KM12
[40] = test system: HL-60
[41] = test system: NCI-H522
[42] = test system: ACHN
[43] = test system: SF-295
[44] = test system: NCI-H23
[45] = test system: SR
[46] = test system: DLD-1
[47] = test system: Malme-3M
[48] = test system: SNB-19
[49] = test system: UO-31
[50] = test system: UACC-257
[51] = test system: HCT-116
[52] = test system: SK-MEL-2
[53] = test system: NCI-H226
[54] = test system: RPMI-8226
[55] = test system: A498
[56] = test system: KM-20L2
[57] = test system: SK-OV-3
[58] = test system: EKVX
[59] = test system: HCT-15

With Nc1c(Br)c(=O)[nH]c(=O)n1COCCO the GI50 [1] was > 100 µM (inactive), the GI50 [2] was > 100 µM (inactive) and the GI50 [3] was > 100 µM (inactive). For the same molecule, the GI50 [4] was > 100 µM (inactive), the GI50 [5] was > 100 µM (inactive) and the GI50 [6] was > 100 µM (inactive). For the same molecule, the GI50 [7] was > 100 µM (inactive), the GI50 [8] was > 100 µM (inactive) and the GI50 [9] was > 100 µM (inactive). For the same molecule, the GI50 [10] was > 100 µM (inactive), the GI50 [11] was > 100 µM (inactive) and the GI50 [12] was > 100 µM (inactive). For the same molecule, the GI50 [13] was > 100 µM (inactive), the GI50 [14] was > 100 µM (inactive) and the GI50 [15] was > 100 µM (inactive). For the same molecule, the GI50 [16] was > 100 µM (inactive), the GI50 [17] was > 100 µM (inactive) and the GI50 [18] was > 100 µM (inactive). For the same molecule, the GI50 [19] was > 100 µM (inactive), the GI50 [20] was > 100 µM (inactive) and the GI50 [21] was > 100 µM (inactive). For the same molecule, the GI50 [22] was > 100 µM (inactive), the GI50 [23] was > 100 µM (inactive) and the GI50 [24] was > 100 µM (inactive). The GI50 [25] was > 100 µM (inactive), the GI50 [26] was > 100 µM (inactive) and the GI50 [27] was > 100 µM (inactive). For the same molecule, the GI50 [28] was > 100 µM (inactive), the GI50 [29] was > 100 µM (inactive) and the GI50 [30] was > 100 µM (inactive). For the same molecule, the GI50 [31] was > 100 µM (inactive), the GI50 [32] was > 100 µM (inactive) and the GI50 [33] was > 100 µM (inactive). For the same molecule, the GI50 [34] was > 100 µM (inactive), the GI50 [35] was > 100 µM (inactive) and the GI50 [36] was > 100 µM (inactive). The GI50 [37] was > 100 µM (inactive), the GI50 [38] was > 100 µM (inactive) and the GI50 [39] was > 100 µM (inactive). For the same molecule, the GI50 [40] was > 100 µM (inactive), the GI50 [41] was > 100 µM (inactive) and the GI50 [42] was > 100 µM (inactive). The GI50 [43] was > 100 µM (inactive), the GI50 [44] was > 100 µM (inactive) and the GI50 [45] was > 100 µM (inactive). The GI50 [46] was > 100 µM (inactive), the GI50 [47] was > 100 µM (inactive) and the GI50 [48] was > 100 µM (inactive). The GI50 [49] was > 100 µM (inactive), the GI50 [50] was > 100 µM (inactive) and the GI50 [51] was > 100 µM (inactive).

For CN(N=O)C(=O)NC(CCCCNC(=O)OCc1ccccc1)C(=O)OCc1ccccc1 (stereo unspecified), the GI50 [1] was 17.4 µM (inactive), the GI50 [2] was 26.6 µM (inactive) and the GI50 [3] was 18.5 µM (inactive). The GI50 [4] was 26.7 µM (inactive), the GI50 [52] was 30.1 µM (inactive) and the GI50 [6] was 25 µM (inactive). The GI50 [7] was 83 µM (inactive), the GI50 [9] was 33.2 µM (inactive) and the GI50 [10] was 29 µM (inactive). For the same molecule, the GI50 [53] was 42.9 µM (inactive), the GI50 [54] was 33.5 µM (inactive) and the GI50 [11] was 28.5 µM (inactive). For the same molecule, the GI50 [55] was 55.5 µM (inactive), the GI50 [12] was 23.4 µM (inactive) and the GI50 [13] was 48.8 µM (inactive). For the same molecule, the GI50 [14] was 21.4 µM (inactive), the GI50 [15] was 25.3 µM (inactive) and the GI50 [16] was 28.5 µM (inactive). The GI50 [17] was 19.3 µM (inactive), the GI50 [18] was 27.1 µM (inactive) and the GI50 [19] was 23.7 µM (inactive). For the same molecule, the GI50 [20] was 17.5 µM (inactive), the GI50 [21] was 17.6 µM (inactive) and the GI50 [22] was 19.9 µM (inactive). The GI50 [23] was 18.8 µM (inactive), the GI50 [56] was > 100 µM (inactive) and the GI50 [24] was 53.3 µM (inactive). The GI50 [25] was 19.2 µM (inactive), the GI50 [57] was > 100 µM (inactive) and the GI50 [26] was > 100 µM (inactive). The GI50 [27] was 27.6 µM (inactive), the GI50 [28] was 71.1 µM (inactive) and the GI50 [58] was > 100 µM (inactive). The GI50 [29] was 33.7 µM (inactive), the GI50 [30] was 13.2 µM (inactive) and the GI50 [31] was 33.4 µM (inactive). For the same molecule, the GI50 [32] was 25 µM (inactive), the GI50 [33] was 43.9 µM (inactive) and the GI50 [34] was 13.7 µM (inactive). The GI50 [35] was 66.4 µM (inactive), the GI50 [36] was > 100 µM (inactive) and the GI50 [37] was 20.4 µM (inactive). For the same molecule, the GI50 [38] was 17.4 µM (inactive), the GI50 [39] was 48.2 µM (inactive) and the GI50 [40] was 25.2 µM (inactive). For the same molecule, the GI50 [41] was 13.1 µM (inactive), the GI50 [42] was 17.7 µM (inactive) and the GI50 [43] was 32.4 µM (inactive). The GI50 [44] was 20.7 µM (inactive), the GI50 [59] was 36 µM and the GI50 [45] was 14.9 µM (inactive). The GI50 [46] was 33.8 µM (inactive), the GI50 [47] was 30.5 µM (inactive) and the GI50 [48] was > 100 µM (inactive). The GI50 [49] was 20.2 µM (inactive), the GI50 [50] was 16.5 µM (inactive) and the GI50 [51] was 56.8 µM (inactive).

O=C1O[C@@H](c2ccc3c(c2)OCO3)C2C(=O)O[C@@H](c3ccc4c(c3)OCO4)C12 (stereo partly specified) was tested, and the GI50 [1] was > 100 µM (inactive), the GI50 [2] was > 100 µM (inactive) and the GI50 [3] was > 100 µM (inactive). The GI50 [4] was > 100 µM (inactive), the GI50 [5] was > 100 µM (inactive) and the GI50 [52] was > 100 µM (inactive). For the same molecule, the GI50 [6] was > 100 µM (inactive), the GI50 [7] was > 100 µM (inactive) and the GI50 [8] was > 100 µM (inactive). For the same molecule, the GI50 [9] was > 100 µM (inactive), the GI50 [10] was > 100 µM (inactive) and the GI50 [53] was > 100 µM (inactive). The GI50 [54] was > 100 µM (inactive), the GI50 [55] was > 100 µM (inactive) and the GI50 [12] was > 100 µM (inactive). The GI50 [13] was > 100 µM (inactive), the GI50 [15] was > 100 µM (inactive) and the GI50 [16] was > 100 µM (inactive). The GI50 [17] was > 100 µM (inactive), the GI50 [18] was > 100 µM (inactive) and the GI50 [19] was > 100 µM (inactive). The GI50 [20] was > 100 µM (inactive), the GI50 [21] was > 100 µM (inactive) and the GI50 [22] was > 100 µM (inactive). The GI50 [23] was 83.6 µM (inactive), the GI50 [56] was > 100 µM (inactive) and the GI50 [24] was > 100 µM (inactive). For the same molecule, the GI50 [25] was > 100 µM (inactive), the GI50 [57] was > 100 µM (inactive) and the GI50 [27] was > 100 µM (inactive). The GI50 [28] was > 100 µM (inactive), the GI50 [58] was > 100 µM (inactive) and the GI50 [29] was > 100 µM (inactive). The GI50 [30] was 25.8 µM (inactive), the GI50 [31] was > 100 µM (inactive) and the GI50 [32] was > 100 µM (inactive). For the same molecule, the GI50 [33] was > 100 µM (inactive), the GI50 [34] was > 100 µM (inactive) and the GI50 [35] was > 100 µM (inactive). The GI50 [36] was > 100 µM (inactive), the GI50 [37] was > 100 µM (inactive) and the GI50 [38] was > 100 µM (inactive). The GI50 [39] was > 100 µM (inactive), the GI50 [40] was > 100 µM (inactive) and the GI50 [41] was > 100 µM (inactive). The GI50 [42] was > 100 µM (inactive), the GI50 [43] was > 100 µM (inactive) and the GI50 [44] was > 100 µM (inactive). For the same molecule, the GI50 [59] was greater than 100 µM, the GI50 [48] was > 100 µM (inactive) and the GI50 [49] was > 100 µM (inactive). The GI50 [50] was > 100 µM (inactive) and the GI50 [51] was > 100 µM (inactive).
